Test results as given in article PMC8729770, “In Vitro Evaluation of Antimicrobial Peptides from the Black Soldier Fly (Hermetia Illucens) against a Selection of Human Pathogens” (Microbiology Spectrum, 2022).
Values joined by “and” are separate entries in the source; they are usually repeats but may differ in a detail not shown here. Equal entries are not always repeated. Where two headings read alike, the source gives them in different places. Ends that are not written are not given here. Peptide text beside a SMILES is read from it.

What was measured:
[1] = Cytotoxicity screening of the peptide library; assay type: cell-based, human; details: human; both repeats; read-out: IC50 cell toxicity MRC5-SV2
Protocol: (§1) To determine early signs of peptide toxicity, the library was tested against the MRC5-SV2 cell line of human, embryonic lung fibroblasts (Sigma-Aldrich). Peptides were serially diluted in 96-well plates as described earlier at concentrations ranging from 64 μM to 0.25 μM for the first screening, and from 32 μM to 0.016 μM for the independent repeat. Tamoxifen (Sigma-Aldrich) was included as a reference compound. After preparation of the test plates, cell suspension (190 μL) of 1.5 × 10^5 cells/mL in complete minimum essential medium (Gibco) was added to the peptides. Plates were incubated for 72 h at 37°C in a 5% CO2 incubator (Binder). Afterwards, 50 μL of a 0.01% (wt/vol) resazurin (Sigma-Aldrich) solution was added to the wells to detect cell viability.

[2] = system: A. fumigatus B42928; assay type: cell-based, Aspergillus fumigatus; details: RPMI, 48 h, 37°C, resazurin
Protocol: (§2) To detect antimicrobial activity of the BSF AMPs, the peptide library underwent screening against a panel of microorganisms, consisting of S. aureus ATCC 6538, E. coli ATCC 8739, P. aeruginosa ATCC 9027, C. albicans B59630, and A. fumigatus B42928. Serial dilutions of the peptides were prepared from the DMSO stock solutions in sterile demineralized water in 96-well plates using an automated liquid-handling workstation (Beckman Coulter Biomek 3000) in end volumes of 10 μL. The final in-plate concentration of DMSO was <1%. Peptide concentrations ranged from 64 μM to 0.25 μM for the first evaluation, and from 32 μM to 0.016 μM for the independent repeat. As references, doxycycline (Sigma-Aldrich; S. aureus, E. coli, P. aeruginosa), flucytosine (Sigma-Aldrich; C. albicans), and econazole (Sigma-Aldrich; A. fumigatus) were used. Suspensions of a starting inoculum of 5 × 10^3 CFU/mL (E. coli, S. aureus, C. albicans, A. fumigatus) and 5 × 10^4 CFU/mL (P. aeruginosa) were prepared in MHB (bacterial species) or RPMI medium (fungal species) and 190 μL was added to the 96-well plates. Plates were incubated for 16 h (E. coli, S. aureus, P. aeruginosa), 24 h (C. albicans), or 48 h (A. fumigatus) at 37°C. After incubation, read-out of the antimicrobial activity was performed using a resazurin assay. Then, 20 μL of a 0.01% (wt/vol) resazurin (Sigma-Aldrich) solution was added to each well and plates were incubated for 15 min (S. aureus), 30 min (E. coli), 45 min (P. aeruginosa), 4 h (C. albicans), or 17 h (A. fumigatus) to allow resazurin reduction to take place. Fluorescence was read using a microplate reader (Telix) at λexcitation = 550 nm and λemission = 590. […] MIC values were determined visually. Medium in the wells with no visual growth was plated on MHA to detect the MBC, defined as ≥3 log reduction compared with the growth control.

[3] = system: P. aeruginosa ATCC 9027; assay type: cell-based, Pseudomonas aeruginosa; details: for IC50: MHB, 37°C, resazurin; for IC50 / MIC P. aeruginosa ATCC 9027: 16 h; for MIC P. aeruginosa ATCC 9027: determined visually; for MBC P. aeruginosa ATCC 9027: plated on MHA, ≥3 log reduction vs growth control
Protocol: as §2

[4] = system: C. albicans B59630; assay type: cell-based, Candida albicans; details: RPMI, 24 h, 37°C, resazurin
Protocol: as §2

[5] = system: S. aureus ATCC 6538; assay type: cell-based, Staphylococcus aureus; details: for IC50: MHB, 37°C, resazurin, 50% growth inhibition; for IC50 / MIC S. aureus ATCC 6538: 16 h; for MIC S. aureus ATCC 6538: determined visually; for MBC S. aureus ATCC 6538: wells without visual growth plated on MHA, ≥3 log reduction vs growth control
Protocol: as §2

[6] = system: MRC5-SV2 cell line of human, embryonic lung fibroblasts; assay: Cytotoxicity screening of the peptide library; assay type: cell-based; details: 72 h, 37°C, resazurin fluorescence
Protocol: as §1

[7] = system: E. coli ATCC 8739; assay type: cell-based, Escherichia coli; details: for IC50: MHB, 37°C, resazurin; for IC50 / MIC E. coli ATCC 8739: 16 h; for MIC E. coli ATCC 8739: determined visually
Protocol: as §2

[8] = repeat 1, first screening 64-0.25 μM
[9] = repeat 2, independent repeat 32-0.016 μM

| Compound | IC50 ([2]; repeat 1, 64-0.25 μM) [µM] | IC50 ([2]; repeat 2, 32-0.016 μM) [µM] | IC50 ([3]; repeat 1, 64-0.25 μM) [µM] | MIC P. aeruginosa ATCC 9027 ([3]; repeat 1, 64-0.25 μM) | IC50 ([3]; repeat 2, 32-0.016 μM) [µM] | MIC P. aeruginosa ATCC 9027 ([3]; repeat 2, 32-0.016 μM) | IC50 ([4]; repeat 1, 64-0.25 μM) [µM] | IC50 ([4]; repeat 2, 32-0.016 μM) [µM] | IC50 ([5]; repeat 1, 64-0.25 μM) [µM] | MIC S. aureus ATCC 6538 ([5]; repeat 1, 64-0.25 μM) [µM] | IC50 ([5]; repeat 2, 32-0.016 μM) [µM] | MIC S. aureus ATCC 6538 ([5]; repeat 2, 32-0.016 μM) | IC50 [6, 8] [µM] | IC50 [6, 9] [µM] | IC50 ([7]; repeat 1, 64-0.25 μM) [µM] | MIC E. coli ATCC 8739 ([7]; repeat 1, 64-0.25 μM) [µM] | IC50 ([7]; repeat 2, 32-0.016 μM) [µM] | MIC E. coli ATCC 8739 ([7]; repeat 2, 32-0.016 μM) | further results |
| --- | --- | --- | --- | --- | --- | --- | --- | --- | --- | --- | --- | --- | --- | --- | --- | --- | --- | --- | --- |
| CC[C@H](C)[C@H](N)C(=O)N[C@@H](CCCCN)C(=O)N[C@@H](CS)C(=O)N[C@H](C(=O)N1CCC[C@H]1C(=O)N[C@@H](CO)C(=O)N[C@@H](CCC(N)=O)C(=O)N[C@@H](CS)C(=O)N[C@@H](CC(N)=O)C(=O)N[C@@H](CCC(N)=O)C(=O)N[C@H](C(=O)N[C@@H](CS)C(=O)N[C@@H](CCCNC(=N)N)C(=O)N[C@H](C(=O)N[C@@H](CC(C)C)C(=O)NCC(=O)N[C@@H](CCCCN)C(=O)N[C@@H](CCCCN)C(=O)N[C@@H](CS)C(=O)NCC(=O)N[C@@H](Cc1ccc(O)cc1)C(=O)N[C@@H](CS)C(=O)N[C@@H](CCCCN)C(=O)N[C@@H](CC(N)=O)C(=O)N[C@@H](C)C(=O)N[C@@H](CO)C(=O)N[C@H](C(=O)N[C@@H](CS)C(=O)N[C@H](C(=O)N[C@@H](CS)C(=O)N[C@@H](CC(C)C)C(N)=O)C(C)C)[C@@H](C)O)C(C)C)[C@@H](C)CC)C(C)C [Hill-Knot2] (H-IKCVPSQCNQICRVLGKKCGYCKNASTCVCL-NH2; N-terminus assumed) |  |  |  |  |  |  |  |  |  |  |  |  |  |  |  |  |  |  | IC50 [1]: < 32 µM |
| VTCDLLEPFLGPAPCMIHCIVRFRKRTGYCNSQNVCVCR [Hill-Def1, Defensin without disulfide bridges, C-terminal amidation] | > 64 | > 32 | > 64 | > 64.00 µM | > 32 | > 32.00 µM | > 64 | > 32 | > 64 | > 64.00 | > 32 | > 32.00 µM | > 64 | > 32 | > 64 | > 64.00 | > 32 | > 32.00 µM |  |
| TTCDLISGTKIENIACAAHCIAMGHKGGYCNSNLICICR [Hill-Def7, Defensin without disulfide bridges] | > 64 | > 32 | > 64 | > 64.00 µM | > 32 | > 32.00 µM | > 64 | > 32 | > 64 | > 64.00 | > 32 | > 32.00 µM | > 64 | > 32 | > 64 | > 64.00 | > 32 | > 32.00 µM |  |
| AMCDLLSGLNMGRSVCAMRCILKGHRGGWCDDQGVCNCRV [Hill-Def5, Defensin without disulfide bridges] | > 64 | > 32 | > 64 | > 64.00 µM | > 32 | > 32.00 µM | > 64 | > 32 | > 64 | > 64.00 | > 32 | > 32.00 µM | > 64 | > 32 | > 64 | > 64.00 | > 32 | > 32.00 µM |  |
| DQSKEPFKPMERPYQRVRDAKIQGITIAQNGPNVLAITRGGLEQ [Hill-Cec6, Cecropin, C-terminal amidation] | > 64 | > 32 | > 64 | > 32.00 µM | > 32 |  | > 64 | > 32 | > 64 | > 64.00 | > 32 | > 32.00 µM | > 64 | > 32 | > 64 | > 32.00 | > 32 | > 64.00 µM | MBC P. aeruginosa ATCC 9027 ([3]; repeat 1): 16.00 µM; MBC P. aeruginosa ATCC 9027 ([3]; repeat 2): 2.00 µM; MBC E. coli ATCC 8739 ([7]; repeat 2, plated on MHA, ≥3 log reduction vs growth control): 2.00 µM |
| ATCTNWNCRTQCIARGKRGGYCVERNICKCTS [Hill-Def3, Defensin without disulfide bridges] | > 64 | > 32 | > 64 | > 64.00 µM | > 3 | > 32.00 µM | > 64 | > 32 | > 64 | > 64.00 | > 32 | > 32.00 µM | > 64 | > 32 | > 64 | > 64.00 | > 32 | > 32.00 µM |  |
| ATCDLLSPFKVGHAACAAHCIARGKRGGWCDKRAVCNCRK (also: bicyclic or more (positions not given here)) [Hill-Def2b, Defensin with disulfide bridges, counterpart of Hill-Def2a] | > 64 | > 32 | > 64 | > 32.00 µM and >64.00 µM | > 32 | > 64.00 µM and >32.00 µM | > 64 | > 32 | 8.5 | 64.00 | 13.5 | > 32.00 µM and 32.00 µM | > 64 | > 32 | > 64 | > 32.00 | > 32 | > 64.00 µM and 64.00 µM | concentration for 90% growth inhibition of S. aureus / activity against S. aureus ([5]; library screening, both repeats): 32 µM and 64 µM; MBC S. aureus ATCC 6538 ([5]; repeat 1): static; MBC S. aureus ATCC 6538 ([5]; repeat 2): static |
| QLPCDYLSGLGFGEDACNTDCIAKGHKSGFCTGLVCRCRTL [Hill-Def8, Defensin without disulfide bridges] | > 64 | > 32 | > 64 | > 64.00 µM | > 32 | > 32.00 µM | > 64 | > 32 | > 64 | > 64.00 | > 32 | > 32.00 µM | > 64 | > 32 | > 64 | > 64.00 | > 32 | > 32.00 µM |  |
| LSCLFENQAVSAIACGASCITRKGKRGGWCSNGVCRCTPN [Hill-Def6, Defensin without disulfide bridges] | > 64 | > 32 | > 64 | > 64.00 µM | > 32 | > 32.00 µM | > 64 | > 32 | > 64 | > 64.00 | > 32 | > 32.00 µM | > 64 | > 32 | > 64 | > 64.00 | > 32 | > 32.00 µM |  |
